{"source": "paper PMC12070314", "about": "“Efficient Small-Molecule Reversal Agents for Anticoagulant Fondaparinux” (ACS Pharmacology & Translational Science, 2025)", "key": {"A549 cells": {"test_system": "A549 cells", "experiment": "MTT cell viability assay", "type": "cell-based", "conditions": "A549, concentrations <100 μM", "method": "(§1) A549 and HeLa cells were maintained in DMEM ([…] glucose, Sigma) containing 10% fetal calf serum (FCS), 2 mM glutamine, 50 U/mL penicillin, and […] streptomycin at 37 °C under a 5% CO2 atmosphere. HMEC-1 and fibroblast cells were maintained in MCDB 131 medium (GIBCO) containing 10% fetal calf serum (FCS), 2 mM glutamine, 50 U/mL penicillin, and […] streptomycin at 37 °C under a 5% CO2 atmosphere.\n(§2) The viability of A549 and HeLa cells was tested using the 3-(4,5-dimethylthiazol-2-yl)-2,5-diphenyltetrazolium bromide (MTT) assay. In it, exponentially growing cells were detached from the culture flasks using a trypsin–0.25% EDTA solution, and the cell suspension was seeded onto a 96-well plate (Nunclon) at a concentration of 9k cells/well. The toxicity of 3AC and 3FF was tested as follows: 24 h after seeding, culture medium was discarded and replaced by compound solution in PBS that was diluted with cell culture medium to the final concentration: [3××] = 10 to 100 μM. MTT (0.5 mg/mL) was added. […] Absorbance was measured at 570 nm using a spectrophotometric BioTek Synergy 2 Microplate Reader (Agilent), 30 min after the addition of DMSO. Cell viability is expressed as an absorbance percent ratio of cells treated with compound to untreated cells, which were used as a control. The results are the average from three independent experiments."}, "HeLa cells": {"test_system": "HeLa cells", "experiment": "MTT cell viability assay", "type": "cell-based", "conditions": "concentrations <100 μM", "method": "as §1, §2"}, "[1]": {"experiment": "NMR titration and DOSY binding study with fondaparinux", "conditions": "water (D2O buffer), neutral pH", "source_text": "The [3AC–fond] binding was additionally studied by NMR. Titration of fond with 3AC modifies several ^1H and ^13C NMR signals that can be readily monitored by ^1H and ^1H–^13C HSQC NMR experiments (Figures and S5–S7). A close analysis of the corresponding chemical-shift perturbations (Figures C and S8) allows determination of the sugar rings to be more affected by the presence of the ligand (see the chemical structure with arbitrary labeling of the rings in Figure A). We hypothesized that [fond–3AC] binding occurs by polar interactions (through the ammonium and OH groups of 3AC with sulfate, carboxylate, and OH residues of fond) and nonpolar contacts (by CH–π interactions between aromatic rings of 3AC and pyranose CH bonds of fond). […] The corresponding ^1H NMR spectra in 90% H2O/10% D2O at pH 8.2 and 288 K allow detection of the NH-sulfamate protons (Figures D and S9) and confirmed the stronger perturbation of ring V. The conformational behavior of fond in the absence and presence of 3AC was additionally studied by acquiring a series of 2D NOESY and 2D ROESY spectra (Figures S10–S13). […]\nOne- and two-dimensional (1D and 2D) NMR experiments were performed at 298 K on a 500 MHz Bruker AVANCE III HD instrument equipped with a z-gradient (65.7 G cm^–1) inverse TCI-cryoprobe. Samples were dissolved in 5 mM Tris-d11 buffer with 50 mM NaCl (in D2O, pH 7.5, uncorrected pH meter reading). […]"}, "HMEC-1 cells": {"test_system": "HMEC-1 cells", "experiment": "Resazurin cell viability assay", "type": "cell-based", "conditions": "for Cell viability (toxicity): HMEC-1, concentrations <100 μM, resazurin", "method": "as §1\n(§3) The viability of HMEC-1 and fibroblast cells was tested using the resazurin assay. In it, exponentially growing cells were detached from the culture flasks using a trypsin–0.25% EDTA solution, and the cell suspension was seeded onto a 96-well plate (Nunclon) at a concentration of 9k cells/well. Toxicity of 3AC and 3FF was tested as follows: 72 h after seeding, culture medium was discarded and replaced by compound solution in PBS that was diluted with cell culture medium to the final concentration: [3××] = 10 to 100 μM. Resazurin (0.1 mg/mL) was added. After 2 h of incubation, fluorescence was measured (λex = 560 nm // λem = 590 nm) using a spectrophotometric BioTek Synergy 2 Microplate Reader (Agilent). Cell viability is expressed as an emission percent ratio of cells treated with the compound to untreated cells, which were used as a control. The results are the average from three independent experiments. In experiments with fondaparinux, the cells were incubated for 2 h with [fondaparinux] = 100 μM and [3××] = 50/100/200 μM following the same procedure for the rest of the protocol."}, "fibroblasts": {"test_system": "fibroblasts", "experiment": "Resazurin cell viability assay", "type": "cell-based", "conditions": "for Cell viability (toxicity): concentrations <100 μM, resazurin", "method": "as §1, §3"}}}
{"smiles": "Oc1ccc2ccccc2c1CNCCCNCCCCNCCCNCc1c(O)ccc2ccccc12", "note": "[Compound 3FF]", "values": [{"measurement": "Cell viability (toxicity)", "setting": "A549 cells", "result": "low to acceptable cell toxicity"}, {"measurement": "Cell viability (toxicity)", "setting": "HeLa cells", "result": "low to acceptable cell toxicity"}, {"measurement": "Binding to fond by NMR", "setting": "[1]", "result": "slightly weaker binding"}, {"measurement": "Cell viability (toxicity)", "setting": "HMEC-1 cells", "result": "low to acceptable cell toxicity"}, {"measurement": "Cell viability (toxicity)", "setting": "fibroblasts", "result": "low to acceptable cell toxicity"}]}
{"smiles": "Oc1ccccc1CNCCCNCCCCNCCCNCc1ccc2c(c1)Cc1ccccc1-2", "note": "[Compound 3AC]", "values": [{"measurement": "Cell viability (toxicity)", "setting": "A549 cells", "result": "low to acceptable cell toxicity"}, {"measurement": "Cell viability (toxicity)", "setting": "HeLa cells", "result": "low to acceptable cell toxicity"}, {"measurement": "Binding to fond by NMR", "setting": "[1]", "result": "strong binding"}, {"measurement": "Cell toxicity in the presence of fondaparinux", "setting": "HMEC-1 cells; HMEC-1, 100 μM fondaparinux, 50/100/200 μM compound", "result": "reduced"}, {"measurement": "Cell viability (toxicity)", "setting": "HMEC-1 cells", "result": "low to acceptable cell toxicity"}, {"measurement": "Cell toxicity in the presence of fondaparinux", "setting": "fibroblasts; 100 μM fondaparinux, 50/100/200 μM compound", "result": "reduced"}, {"measurement": "Cell viability (toxicity)", "setting": "fibroblasts", "result": "low to acceptable cell toxicity"}]}
